Common to all, as to experiment: NCI tumour cell line growth inhibition, 48 h
Experiment [1] relates to COLO 205 colon.
Experiment [2] relates to DU-145 prostate.
Experiment [3] concerns LOX IMVI melanoma.
Experiment [4] relates to NCI-H23 lung.
The subject of experiment [5] is NCI-H460 lung.
Experiment [6] deals with NCI/ADR-RES ovarian.
In experiment [7] the test system is SF-539 CNS.
The subject of experiment [8] is SR leukemia.

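How tested: cells in 96-well plates exposed to compound for 48 hours at five concentrations. GI50 marks 50% less growth. TGI denotes the concentration required for complete inhibition of growth.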 Where a SMILES comes first, the peptide text is derived from it. [ ]: non-standard residue; d: D form. pGlu = O=C1CC[CH](C(=O)O)N1

`Clc1nc(Cl)c2ncn(CC3(Cn4cnc5c(Cl)nc(Cl)nc54)COC3)c2n1`: the GI50 in experiment [1] was 0.184 µM; in experiment [2] it was 0.183 µM; in experiment [3], 0.18 µM; in experiment [4], 0.194 µM; in experiment [5], 0.222 µM; in experiment [6], 0.257 µM. For the same compound, the GI50 in experiment [7] was 1.24 µM; in experiment [8], 0.407 µM. The TGI was determined as 0.356 µM in experiment [1]; 0.335 µM in experiment [2]; 0.349 µM in experiment [3]; 0.392 µM in experiment [4]; 0.447 µM in experiment [5]; 0.573 µM in experiment [6]. Moreover, the TGI was 2.55 µM in experiment [7] and more than 100 µM in experiment [8].
Consider `COc1cccc(N2CCN(CC(=O)N3CCN(c4nnc(-c5ccc(Cl)cc5)c(-c5ccc(Cl)cc5)n4)CC3)CC2)c1`, for which the GI50 was 22.2 µM in experiment [1]; more than 100 µM in experiment [2]; 21.3 µM in experiment [3]; 33.6 µM in experiment [4]; 24.5 µM in experiment [5]; 19.9 µM in experiment [6]. Also, the results for the GI50 in experiment [7] and in experiment [8] were 11.5 µM and 5.04 µM, respectively. Moreover, the TGI in experiment [1], in experiment [2], in experiment [3], in experiment [4], in experiment [5] and in experiment [6] was more than 100 µM in each case. The TGI in experiment [7] is 90.7 µM; in experiment [8], 31.3 µM.
For `O.O.[NH-]C1(C(=O)O)CCCC1.[NH-]C1(C(=O)O)CCCC1.[Ni+2]`, the TGI in experiment [1], in experiment [2], in experiment [3], in experiment [4], in experiment [5] and in experiment [6] was more than 100 µM in each case. For the same compound, the TGI in experiment [7] and in experiment [8] was more than 100 µM throughout. In addition, the GI50 in experiment [2] was more than 100 µM; in experiment [8], 65.9 µM.
In the case of `COc1cc(C(O)CCBr)c(OC)cc1C` (configuration not stated), the TGI is more than 57 µM in experiment [1]; more than 100 µM in experiment [2]; more than 100 µM in experiment [3]; more than 100 µM in experiment [4]; more than 100 µM in experiment [5]; more than 57.6 µM in experiment [6]. In addition, the results for the TGI in experiment [7] and in experiment [8] were 31.3 µM and more than 31.6 µM, respectively.
`COC(=O)C1CC23CCCN4CCC5(c6ccccc6N(C=O)C15CC2)C43` (configuration not stated): the TGI in experiment [1], in experiment [2], in experiment [3], in experiment [4], in experiment [5] and in experiment [6] was more than 100 µM in each case. In addition, the TGI in experiment [7] and in experiment [8] was more than 100 µM throughout.
As to `CCNC(=O)C1CCCN1C(=O)C(CCCN=C(N)N)NC(=O)C(CC(C)C)NC(=O)C(CC(C)C)NC(=O)C(Cc1ccc(O)cc1)NC(=O)C(CO)NC(=O)C(Cc1c[nH]c2ccccc12)NC(=O)C(Cc1cnc[nH]1)NC(=O)C1CCC(=O)N1` (configuration not stated) ([pGlu]HWSYLLRP-NHEt; configuration not given here), the GI50 in experiment [1], in experiment [2], in experiment [3], in experiment [4], in experiment [5] and in experiment [6] was more than 100 µM in each case. Besides, the GI50 in experiment [7] and in experiment [8] was more than 100 µM throughout. For the same compound, the TGI in experiment [1], in experiment [2], in experiment [3], in experiment [4], in experiment [5] and in experiment [6] was more than 100 µM each time. For the same compound, the TGI in experiment [7] and in experiment [8] was more than 100 µM each time.
Consider `O=C(CCCCCCNC(=O)c1cnc(N(c2ccccc2)c2ccccc2)nc1)NO`, for which the GI50 in experiment [1] is 1.79 µM; in experiment [2], 3.82 µM; in experiment [3], 2.15 µM; in experiment [4], 3.97 µM; in experiment [5], 2.75 µM; in experiment [6], 14.4 µM. Moreover, the GI50 in experiment [7] was 2.92 µM; in experiment [8] it was 1.22 µM. The TGI was 4.1 µM in experiment [1]; more than 100 µM in experiment [2]; 11.4 µM in experiment [3]; 38.6 µM in experiment [4]; more than 100 µM in experiment [5]; more than 96.8 µM in experiment [6]. The figures for the TGI in experiment [7] and in experiment [8] were 52.3 µM and more than 100 µM, respectively.
In the case of `CCN(Cc1cc(Nc2nc(C)cn3c(-c4cn[nH]c4)cnc23)sn1)C(C)(C)CO`, the GI50 in experiment [1] was less than 0.01 µM; in experiment [2], 0.0822 µM; in experiment [3], less than 0.0125 µM; in experiment [4], 0.191 µM; in experiment [5], 0.044 µM; in experiment [6], 1.12 µM. For the same compound, the GI50 in experiment [7] was 0.0179 µM; in experiment [8], less than 0.01 µM. The TGI was 0.132 µM in experiment [1]; 6.58 µM in experiment [2]; 0.199 µM in experiment [3]; 7.09 µM in experiment [4]; 4.59 µM in experiment [5]; more than 44.7 µM in experiment [6]. Moreover, the figures for the TGI in experiment [7] and in experiment [8] were 0.118 µM and 1.64 µM, respectively.
As for `COc1ccc(-c2nn(-c3cccc(Cl)c3)cc2-c2cc(-c3cccs3)[nH]c(=S)n2)cc1`, the GI50 in experiment [1] is 2.35 µM; in experiment [2], 5.49 µM; in experiment [3] it was 3.56 µM; in experiment [4] it was 3.43 µM; in experiment [5] it was 3.01 µM; in experiment [6], 4.77 µM. Further, the GI50 in experiment [7] was 4.7 µM; in experiment [8] it was 4 µM. Also, the TGI is 5.59 µM in experiment [1]; 72.5 µM in experiment [2]; 13.8 µM in experiment [3]; 16.2 µM in experiment [4]; 11 µM in experiment [5]; 41.8 µM in experiment [6]. Further, the TGI stood at 19.7 µM in experiment [7] and 31.9 µM in experiment [8].
With `O=C1C(Cl)=C(Nc2cccc(F)c2)C(=O)N1Cc1ccc(Cl)cc1`, the GI50 is 0.516 µM in experiment [1]; 2.67 µM in experiment [2]; 0.649 µM in experiment [3]; 0.832 µM in experiment [4]; 1.08 µM in experiment [5]; 0.426 µM in experiment [6]. In addition, the GI50 in experiment [7] was 1.03 µM; in experiment [8] it was 0.128 µM. Also, the TGI in experiment [1] is 11.9 µM; in experiment [2], 8.44 µM; in experiment [3], 3.41 µM; in experiment [4], 14.4 µM; in experiment [6], 5.61 µM; in experiment [7] it was 4.04 µM.
`O=C(Oc1cccc(F)c1OC(=O)c1cccc(O)c1)c1cccc(O)c1`: the GI50 in experiment [1] was 24.4 µM; in experiment [2], 44.7 µM; in experiment [3], 13 µM; in experiment [4], 26.9 µM; in experiment [5] it was 11.6 µM; in experiment [6], 10.3 µM. Moreover, the GI50 in experiment [7] was 16.9 µM; in experiment [8] it was 7.91 µM. The TGI in experiment [1] was 73.7 µM; in experiment [2], more than 100 µM; in experiment [3], more than 100 µM; in experiment [4] it was more than 100 µM; in experiment [5], more than 100 µM; in experiment [6], 77.6 µM. Moreover, the TGI in experiment [7] and in experiment [8] was more than 100 µM in each case.
Regarding `CCN1C(=O)N(CC)C2C1NN=c1s/c(=C\c3cccc(F)c3)c(=O)n12` (configuration not stated), the GI50 in experiment [1] was 0.243 µM; in experiment [2], 0.389 µM; in experiment [3] it was 0.11 µM; in experiment [4], 0.522 µM; in experiment [5], 0.217 µM; in experiment [6] it was 0.059 µM. For the same compound, the GI50 in experiment [7] was 0.0804 µM; in experiment [8] it was 0.044 µM. Moreover, the TGI in experiment [1] is 4.92 µM; in experiment [2] it was more than 100 µM; in experiment [3], more than 100 µM; in experiment [4], more than 100 µM; in experiment [5], 15.1 µM; in experiment [6] it was more than 100 µM. The values for the TGI in experiment [7] and in experiment [8] were 1.05 µM and more than 100 µM, respectively.
With `COc1cc(/C=C\c2cc(OC)c(OC)c(OC)c2)cc(NC(=O)/C=C/c2cc(OC)c(OC)c(OC)c2)c1OC`, the GI50 was 4.2 µM in experiment [1]; more than 100 µM in experiment [2]; 4.51 µM in experiment [3]; 5.27 µM in experiment [4]; 5.39 µM in experiment [5]; 2.77 µM in experiment [6]. Moreover, the GI50 in experiment [7] was 7.58 µM; in experiment [8], 0.23 µM. The TGI in experiment [1], in experiment [2], in experiment [3], in experiment [4], in experiment [5] and in experiment [6] was more than 100 µM in each case. In addition, the TGI in experiment [7] and in experiment [8] was more than 100 µM in each case.
For the compound `CNC(=O)Nc1nc2ccc([N+](=O)[O-])cc2[nH]1`, the TGI in experiment [1], in experiment [2], in experiment [3], in experiment [4], in experiment [5] and in experiment [6] was more than 100 µM in each case. Further, the TGI in experiment [7] and in experiment [8] was more than 100 µM throughout.

For the origin of these results see PubChem BioAssay (NCI).
